From patent US20030165570A1, “Pharmaceutical compositions containing micronized bicyclic drugs” (SmithKline Beecham p.l.c., priority 1997, published 2003)
In brackets after ≈: the same amount, converted by molar mass.

Assay: Aqueous solubility
Type: physicochemical
Excerpt: The compounds used in this invention have a very low solubility in water.

USP solubility classification: virtually insoluble
aqueous solubility: 8 µg/mL (≈ 22.4 µM)
Compound: CC(=O)c1ccc2c(c1)[C@H](NC(=O)c1ccc(F)cc1)[C@@H](O)C(C)(C)O2 (relative stereo) [Compound 1, trans-6-acetyl-4S-(4-fluorobenzoylamino)-3,4-dihydro-2,2-dimethyl-2H-1-benzopyran-3R-ol]
